The test system of data set [1] is murine thymocytes (IL-1β action). Put plainly: Inhibition of IL-1 action: suppression of IL-1β + PHA stimulated thymocyte proliferation ((3H)-thymidine incorporation). The format is cell-based, mouse (C3H/HeN). As to conditions: IL-1β 0.08 ng/ml + PHA 10 μg/ml. The procedure:
The ability of the above compounds to suppress the cell-proliferative effect of IL-1β (O'Gara, 1990) was examined as described in Example 11. Mouse thymocytes in culture were stimulated with IL-1β in the presence of phytohemagglutinin (PHA) and increasing concentrations of triptolide (control) and triptolide derivatives. The cells were cultured for 72 hours, and during the last 18 hours, incubated with tritiated thymidine. DNA synthesis was assessed by measuring incorporation of radiolabeled thymidine. The results expressed in terms of IC50 (concentration effective to cause 50% suppression of proliferation) are shown in Table I.
Inhibition of IL-1 Action on Murine Thymocytes
C3H/HeN mouse thymocytes were prepared and the action of IL-1 together with PHA, which stimulate proliferation of thymocyte, was measured using standard techniques (O'Gara, 1990; Mishell, 1980). Three- to six-week old C3H/HeN male mice (Simonson Laboratory, Gilroy, Calif.) were sacrificed by CO2 inhalation. Thymi were removed, separated from adherent non-thymic tissue, homogenized in Hank's balanced salt solution (HBSS, Gibco) using a glass homogenizer, and centrifuged at 200×g for 10 minutes at 15° C. Following an additional wash in HBSS, the thymocytes were resuspended in RPMI 1640 medium containing 50 uM 2-mercaptoethanol, 2 mM glutamine, 1 mM sodium pyruvate, non-essential amino acids 100 U/ml penicillin, 100 μg/ml streptomycin, and 10% heat-inactivated fetal bovine serum.
Cells were cultured in round-bottom 96 well microtiter tissue culture plates, 6×10^5 cells per well, in a volume of 100 μl. Recombinant human IL-1β(R & D Systems #201-LB) together with Phytohemagglutinin P (PHA, Pharmacia) were added to the cells in volume of 25 μl per well to achieve a final concentration of 0.08 ng/ml and 10 μg/ml, respectively. Samples were dissolved in DMSO (10 mg/ml), then diluted in culture medium. […]
Plates were incubated at 37° C. in a 5% CO2 incubator for 72 hours. […] Cells were then harvested and counted. […]
A general note: Uptake of a labelled nucleoside into DNA is a usual measure of proliferation.

Data set [2] is described as follows: Cytotoxicity by MTT assay, reported with the IL-1 assay (Table I). The data set is classed as cell-based. As to conditions: mouse, thymocytes, cytotoxic when toxicity greater than 25%. How it is done: Potential cytotoxicity of the test samples was assessed by the measurement of their effect on the reduction of MTT (3-[4,5-Dimethylthiazole-2-yl]-2,5-diphenyltetrazolium bromide) by cultured cells. MTT, a yellow-colored compound, is reduced by mitochondrial enzymes to form the purple crystalline reduction product formazane, providing an index of cellular respiration on viable cells as well as a sensitive assay for cytotoxicity (Mossmann, 1983).
The cytotoxicity was assessed in cultured human PBMC and mouse thymocytes. A stock solution of MTT (Sigma) at 5 mg/ml in phosphate buffered saline, pH 7.4, was prepared and stored in the dark at 4° C. PBMCs or thymocytes were cultured with various concentrations of test samples in flatbottom 96-well tissue culture plates (Costar) under the same conditions as those described above, but the stimulants (X-35 or IL-1+PHA) were replaced by appropriate medium. Untreated cells with medium alone and without the test samples were used as controls. After incubation for 21 hours, 25 μl of MTT solution was added to each well. After an additional three hours of incubation, the experiment was terminated by addition of a solution of 10% sodium dodecyl sulfate in 0.01N HCl. Following overnight incubation at 37° C. to solubilize the formazane crystals, optical density was determined at 570-650 nm in microplate reader. […]

Data set [3] can be described thus: Stability in blood serum (TLC). The format is in vitro ADME. The settings on record: rat serum, 37° C. How it is done:
The stability of triptolide succinate in blood serum was determined as detailed in Example 10B. In this study, a solution of triptolide succinate (YM-262, free acid) in DMSO was mixed with rat serum and incubated at 37° C. The mixture was assayed periodically by thin layer chromatography (TLC) to follow the hydrolysis of the triptolide succinate over time.
A solution of triptolide succinate (free acid; YM-262) in DMSO was made at a concentration of 25 mg/ml, and 0.1 ml of this solution was mixed with 0.5 ml of rat serum. The mixture was incubated at 37° C. Aliquots of the mixture were taken at 1, 3, 5, 15, 45 minutes and 18 hours and analyzed by thin layer chromatography (TLC). The TLC plates were developed in 1:5 CH2 CI2 /Et2 O. After development, the plates were treated with iodine vapor and examined under a UV lamp. Triptolide and triptolide succinate were used as reference compounds (Rf =0.60), and 0.45, respectively).

Read-outs that look alike come from different tables or passages of the source. Bounds are passed on as bounds.

Take `CC(C)[C@]12O[C@H]1[C@@H]1O[C@]13[C@]1(O[C@H]1C[C@H]1C4=C(CC[C@@]13C)C(=O)OC4)[C@@H]2O` [Triptolide, triptolide]: the IC50 in data set [1] (72 hours, read-out: IC50, IL-1 assay) is around 5 nM; in data set [1] (Mus musculus, Thymocyte, 72 h, read-out: IC50 (concentration effective to cause 50% suppression of proliferation), IL-1 assay) it was 1.9 ng/mL; in data set [1] (Mus musculus, Thymocyte, 72 h, read-out: IC50, IL-1 assay), 5.3 nM. The compound further had an MCC in data set [2] above 12.5 µg/mL. Besides, in data set [3] (15 minutes), the “triptolide spot, 15 minutes (formed from triptolide succinate)” value is on record as “a new spot corresponding to triptolide had appeared”. Further, the “triptolide spot, 45 minutes (formed from triptolide succinate)” value in data set [3] (45 minutes) was “the triptolide spot had also disappeared”.

(Values after patent US5663335A, “Immunosuppressive compounds and methods” (priority 1996, dated 1997).)
